Patent US4442044A, “Process for preparing monoesters and diesters of N-alkyl substituted amino methyl phosphonic acid” (priority 1983, dated 1984)

Experiments:
Experiment in all cases: post-emergent herbicidal activity, greenhouse
Type in all cases: in vivo
[1] = system: Crabgrass; details: Table II, 4 WAT
Method in brief: (§1)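 Seeds or propagules sown in compacted top soil, grown 2–3 weeks in greenhouse, then sprayed with compound solution/suspension containing ~0.4% emulsifier at tabulated rates. Injury scored visually versus untreated controls at ~2 and 4 weeks after treatment, expressed as a herbicidal activity index.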

[2] = system: Cocklebur; details: 4 WAT
Method in brief: as §1

[3] = system: Downy Brome; details: 4 WAT
Method in brief: as §1

[4] = system: Hemp Sesbania; details: Table II, 4 WAT
Method in brief: as §1

[5] = system: Sugar Beet; details: Table II, 4 WAT
Method in brief: as §1

[6] = system: Velvetleaf; details: 4 WAT
Method in brief: as §1

[7] = system: Soybean; details: Table II, 4 WAT
Method in brief: as §1

[8] = system: Wheat; details: Table II, 4 WAT
Method in brief: as §1

[9] = system: Johnsongrass; details: Table I, 4 WAT
Method in brief: as §1

[10] = system: Panicum Spp; details: Table II, 4 WAT
Method in brief: as §1

[11] = system: Smartweed; details: 4 WAT
Method in brief: as §1

[12] = system: Barnyardgrass; details: 4 WAT
Method in brief: as §1

[13] = system: Yellow Nutsedge; details: Table I, 4 WAT
Method in brief: as §1

[14] = system: Canada Thistle; details: Table I, 4 WAT
Method in brief: as §1

[15] = system: Lambsquarters; details: 4 WAT
Method in brief: as §1

[16] = system: Sorghum; details: Table II, 4 WAT
Method in brief: as §1

[17] = system: Rice; details: Table II, 4 WAT
Method in brief: as §1

[18] = system: Morningglory; details: 4 WAT
Method in brief: as §1

[19] = system: Quackgrass; details: Table I, 4 WAT
Method in brief: as §1

[20] = system: Wild Buckwheat; details: Table II, 4 WAT
Method in brief: as §1

CCOC(=O)CNCP(=O)(OC(C)C#N)OC(C)C#N (stereo not drawn) [Example 1, glycine, N-[[bis(1-cyanoethoxy)phosphinyl]methyl], ethyl ester]
post-emergent herbicidal activity index ([1]; 0.28 kg/h): 1 (25-49% control) | post-emergent herbicidal activity index ([1]; 1.12 kg/h): 3 (75-99% control) | post-emergent herbicidal activity index ([1]; 5.6 kg/h): 4 (100% control) | post-emergent herbicidal activity index ([2]; Table I, 5.6 kg/h): 3 (75-99% control) | post-emergent herbicidal activity index ([2]; Table I, 11.2 kg/h): 3 (75-99% control) | post-emergent herbicidal activity index ([2]; Table II, 0.28 kg/h): 1 (25-49% control) | post-emergent herbicidal activity index ([2]; Table II, 1.12 kg/h): 2 (50-74% control) | post-emergent herbicidal activity index ([2]; Table II, 5.6 kg/h): 3 (75-99% control) | post-emergent herbicidal activity index ([3]; Table I, 5.6 kg/h): 3 (75-99% control) | post-emergent herbicidal activity index ([3]; Table I, 11.2 kg/h): 2 (50-74% control) | post-emergent herbicidal activity index ([3]; Table II, 0.28 kg/h): 0 (0-24% control) | post-emergent herbicidal activity index ([3]; Table II, 1.12 kg/h): 2 (50-74% control) | post-emergent herbicidal activity index ([3]; Table II, 5.6 kg/h): 4 (100% control) | post-emergent herbicidal activity index ([4]; 0.28 kg/h): 0 (0-24% control) | post-emergent herbicidal activity index ([4]; 1.12 kg/h): 5 | post-emergent herbicidal activity index ([4]; 5.6 kg/h): 2 (50-74% control) | post-emergent herbicidal activity index ([5]; 0.28 kg/h): 2 (50-74% control) | post-emergent herbicidal activity index ([5]; 1.12 kg/h): 4 (100% control) | post-emergent herbicidal activity index ([5]; 5.6 kg/h): 4 (100% control) | post-emergent herbicidal activity index ([6]; Table I, 5.6 kg/h): 4 (100% control) | post-emergent herbicidal activity index ([6]; Table I, 11.2 kg/h): 3 (75-99% control) | post-emergent herbicidal activity index ([6]; Table II, 0.28 kg/h): 0 (0-24% control) | post-emergent herbicidal activity index ([6]; Table II, 1.12 kg/h): 2 (50-74% control) | post-emergent herbicidal activity index ([6]; Table II, 5.6 kg/h): 4 (100% control) | post-emergent herbicidal activity index ([7]; 0.28 kg/h): 0 (0-24% control) | post-emergent herbicidal activity index ([7]; 1.12 kg/h): 2 (50-74% control) | post-emergent herbicidal activity index ([7]; 5.6 kg/h): 4 (100% control) | post-emergent herbicidal activity index ([8]; 0.28 kg/h): 1 (25-49% control) | post-emergent herbicidal activity index ([8]; 1.12 kg/h): 2 (50-74% control) | post-emergent herbicidal activity index ([8]; 5.6 kg/h): 4 (100% control) | post-emergent herbicidal activity index ([9]; 5.6 kg/h): 3 (75-99% control) | post-emergent herbicidal activity index ([9]; 11.2 kg/h): 4 (100% control) | post-emergent herbicidal activity index ([10]; 0.28 kg/h): 2 (50-74% control) | post-emergent herbicidal activity index ([10]; 1.12 kg/h): 4 (100% control) | post-emergent herbicidal activity index ([10]; 5.6 kg/h): 4 (100% control) | post-emergent herbicidal activity index ([11]; Table I, 5.6 kg/h): 3 (75-99% control) | post-emergent herbicidal activity index ([11]; Table I, 11.2 kg/h): 4 (100% control) | post-emergent herbicidal activity index ([11]; Table II, 0.28 kg/h): 0 (0-24% control) | post-emergent herbicidal activity index ([11]; Table II, 1.12 kg/h): 3 (75-99% control) | post-emergent herbicidal activity index ([11]; Table II, 5.6 kg/h): 4 (100% control) | post-emergent herbicidal activity index ([12]; Table I, 5.6 kg/h): 4 (100% control) | post-emergent herbicidal activity index ([12]; Table I, 11.2 kg/h): 4 (100% control) | post-emergent herbicidal activity index ([12]; Table II, 0.28 kg/h): 2 (50-74% control) | post-emergent herbicidal activity index ([12]; Table II, 1.12 kg/h): 3 (75-99% control) | post-emergent herbicidal activity index ([12]; Table II, 5.6 kg/h): 4 (100% control) | post-emergent herbicidal activity index ([13]; 5.6 kg/h): 2 (50-74% control) | post-emergent herbicidal activity index ([13]; 11.2 kg/h): 3 (75-99% control) | post-emergent herbicidal activity index ([14]; 5.6 kg/h): 4 (100% control) | post-emergent herbicidal activity index ([14]; 11.2 kg/h): 3 (75-99% control) | post-emergent herbicidal activity index ([15]; Table I, 5.6 kg/h): 3 (75-99% control) | post-emergent herbicidal activity index ([15]; Table I, 11.2 kg/h): 1 (25-49% control) | post-emergent herbicidal activity index ([15]; Table II, 0.28 kg/h): 0 (0-24% control) | post-emergent herbicidal activity index ([15]; Table II, 1.12 kg/h): 3 (75-99% control) | post-emergent herbicidal activity index ([15]; Table II, 5.6 kg/h): 3 (75-99% control) | post-emergent herbicidal activity index ([16]; 0.28 kg/h): 1 (25-49% control) | post-emergent herbicidal activity index ([16]; 1.12 kg/h): 3 (75-99% control) | post-emergent herbicidal activity index ([16]; 5.6 kg/h): 4 (100% control) | post-emergent herbicidal activity index ([17]; 0.28 kg/h): 0 (0-24% control) | post-emergent herbicidal activity index ([17]; 1.12 kg/h): 1 (25-49% control) | post-emergent herbicidal activity index ([17]; 5.6 kg/h): 4 (100% control) | post-emergent herbicidal activity index ([18]; Table I, 5.6 kg/h): 3 (75-99% control) | post-emergent herbicidal activity index ([18]; Table I, 11.2 kg/h): 3 (75-99% control) | post-emergent herbicidal activity index ([18]; Table II, 0.28 kg/h): 1 (25-49% control) | post-emergent herbicidal activity index ([18]; Table II, 1.12 kg/h): 2 (50-74% control) | post-emergent herbicidal activity index ([18]; Table II, 5.6 kg/h): 3 (75-99% control) | post-emergent herbicidal activity index ([19]; 5.6 kg/h): 3 (75-99% control) | post-emergent herbicidal activity index ([19]; 11.2 kg/h): 2 (50-74% control) | post-emergent herbicidal activity index ([20]; 0.28 kg/h): 0 (0-24% control) | post-emergent herbicidal activity index ([20]; 1.12 kg/h): 2 (50-74% control) | post-emergent herbicidal activity index ([20]; 5.6 kg/h): 4 (100% control)

CCOC(=O)CNCP(=O)(O)OC(C)CC(=O)OCC (stereo not drawn) [Example 25]
post-emergent herbicidal activity index ([2]; Table I, 5.6 kg/h): 0 (0-24% control) | post-emergent herbicidal activity index ([2]; Table I, 11.2 kg/h): 2 (50-74% control) | post-emergent herbicidal activity index ([3]; Table I, 5.6 kg/h): 0 (0-24% control) | post-emergent herbicidal activity index ([3]; Table I, 11.2 kg/h): 0 (0-24% control) | post-emergent herbicidal activity index ([6]; Table I, 5.6 kg/h): 0 (0-24% control) | post-emergent herbicidal activity index ([6]; Table I, 11.2 kg/h): 1 (25-49% control) | post-emergent herbicidal activity index ([9]; 5.6 kg/h): 1 (25-49% control) | post-emergent herbicidal activity index ([9]; 11.2 kg/h): 2 (50-74% control) | post-emergent herbicidal activity index ([11]; Table I, 5.6 kg/h): 0 (0-24% control) | post-emergent herbicidal activity index ([11]; Table I, 11.2 kg/h): 0 (0-24% control) | post-emergent herbicidal activity index ([12]; Table I, 5.6 kg/h): 1 (25-49% control) | post-emergent herbicidal activity index ([12]; Table I, 11.2 kg/h): 2 (50-74% control) | post-emergent herbicidal activity index ([13]; 5.6 kg/h): 0 (0-24% control) | post-emergent herbicidal activity index ([13]; 11.2 kg/h): 2 (50-74% control) | post-emergent herbicidal activity index ([14]; 5.6 kg/h): 0 (0-24% control) | post-emergent herbicidal activity index ([14]; 11.2 kg/h): 1 (25-49% control) | post-emergent herbicidal activity index ([15]; Table I, 5.6 kg/h): 0 (0-24% control) | post-emergent herbicidal activity index ([15]; Table I, 11.2 kg/h): 0 (0-24% control) | post-emergent herbicidal activity index ([18]; Table I, 5.6 kg/h): 1 (25-49% control) | post-emergent herbicidal activity index ([18]; Table I, 11.2 kg/h): 2 (50-74% control) | post-emergent herbicidal activity index ([19]; 5.6 kg/h): 0 (0-24% control) | post-emergent herbicidal activity index ([19]; 11.2 kg/h): 1 (25-49% control)

CCOC(=O)CNCP(=O)(O)OCC(Cl)(Cl)Cl [Example 26, glycine, N-[[(2,2,2-trichloroethoxy)hydroxyphosphinyl]methyl]-ethyl ester]
post-emergent herbicidal activity index ([2]; Table I, 11.2 kg/h): 1 (25-49% control) | post-emergent herbicidal activity index ([2]; Table I, 56.0 kg/h): 1 (25-49% control) | post-emergent herbicidal activity index ([3]; Table I, 11.2 kg/h): 0 (0-24% control) | post-emergent herbicidal activity index ([3]; Table I, 56.0 kg/h): 0 (0-24% control) | post-emergent herbicidal activity index ([6]; Table I, 11.2 kg/h): 0 (0-24% control) | post-emergent herbicidal activity index ([6]; Table I, 56.0 kg/h): 0 (0-24% control) | post-emergent herbicidal activity index ([9]; 11.2 kg/h): 0 (0-24% control) | post-emergent herbicidal activity index ([9]; 56.0 kg/h): 0 (0-24% control) | post-emergent herbicidal activity index ([11]; Table I, 11.2 kg/h): 0 (0-24% control) | post-emergent herbicidal activity index ([11]; Table I, 56.0 kg/h): 1 (25-49% control) | post-emergent herbicidal activity index ([12]; Table I, 11.2 kg/h): 1 (25-49% control) | post-emergent herbicidal activity index ([12]; Table I, 56.0 kg/h): 1 (25-49% control) | post-emergent herbicidal activity index ([13]; 11.2 kg/h): 0 (0-24% control) | post-emergent herbicidal activity index ([13]; 56.0 kg/h): 1 (25-49% control) | post-emergent herbicidal activity index ([14]; 11.2 kg/h): 0 (0-24% control) | post-emergent herbicidal activity index ([14]; 56.0 kg/h): 0 (0-24% control) | post-emergent herbicidal activity index ([15]; Table I, 11.2 kg/h): 1 (25-49% control) | post-emergent herbicidal activity index ([15]; Table I, 56.0 kg/h): 1 (25-49% control) | post-emergent herbicidal activity index ([18]; Table I, 11.2 kg/h): 0 (0-24% control) | post-emergent herbicidal activity index ([18]; Table I, 56.0 kg/h): 1 (25-49% control) | post-emergent herbicidal activity index ([19]; 11.2 kg/h): 0 (0-24% control) | post-emergent herbicidal activity index ([19]; 56.0 kg/h): 0 (0-24% control)
